The values that follow come from PubChem BioAssay AID328 (DTP/NCI, 2004).

For this test, the system named is BDF1 mice, P388 leukemia ip, median survival T/C. Briefly: NCI In Vivo Anticancer Drug Screen. Data for tumor model P388 Leukemia (intraperitoneal) in B6D2F1 (BDF1) mice. To be noted: endpoint: median survival time, higher = longer survival. A digest of the protocol: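 T/C = treated-group survival ÷ vehicle-control survival; tumour transplanted into mice before dosing.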

The mark [1] stands for this setting: dose: 6.25 mg/kg/injection, schedule: Q01DX009 (ip), vehicle: saline.
The mark [2] stands for this setting: dose: 12.0 mg/kg/injection, schedule: Q04DX003 (ip), vehicle: saline.
Setting [3] is: dose: 12.5 mg/kg/injection, schedule: Q01DX009 (ip), vehicle: saline.
Where [4] appears, read: dose: 25.0 mg/kg/injection, schedule: Q04DX003 (ip), vehicle: saline.
Setting [5] is: dose: 50.0 mg/kg/injection, schedule: Q04DX003 (ip), vehicle: saline.
[6] abbreviates: dose: 50.0 mg/kg/injection, schedule: Q01DX009 (ip), vehicle: saline with Tween-80.
[7] abbreviates: dose: 12.5 mg/kg/injection, schedule: Q01DX009 (ip), vehicle: saline with Tween-80.

Several values for one entry are separate records, joined by “and”; a condition that tells them apart may be missing. Equal entries are not always repeated. Inconclusive results and toxic doses are left out.

For the molecule `CNC(=N)c1ccc(NC(=N)c2ccc(NC(=N)c3ccc(NC(=O)Nc4ccc(C(=N)NC)cc4)cc3)cc2)cc1`, the T/C is, setting by setting: (dose: 1.1 mg/kg/injection, schedule: Q04DX003 (ip), vehicle: saline) 122 % of control; (dose: 2.4 mg/kg/injection, schedule: Q01DX009 (ip), vehicle: saline) 170 % of control; (dose: 3.6 mg/kg/injection, schedule: Q01DX009 (ip), vehicle: saline) 187 % of control; (dose: 5.0 mg/kg/injection, schedule: Q01DX009 (ip), vehicle: saline) 154 % of control and 157 % of control; (dose: 5.3 mg/kg/injection, schedule: Q01DX009 (ip), vehicle: saline) 195 % of control; (dose: 5.3 mg/kg/injection, schedule: Q04DX003 (ip), vehicle: saline) 154 % of control. The T/C runs as follows: under setting [1], 161 % of control; (dose: 8.0 mg/kg/injection, schedule: Q01DX009 (ip), vehicle: saline) 165 % of control; (dose: 12.0 mg/kg/injection, schedule: Q01DX009 (ip), vehicle: saline) 188 % of control; under setting [2], 154 % of control; under setting [3], 230 % of control; (dose: 18.0 mg/kg/injection, schedule: Q01DX009 (ip), vehicle: saline) 230 % of control. For the same molecule, the T/C was 187 % of control (dose: 18.0 mg/kg/injection, schedule: Q04DX003 (ip), vehicle: saline) and 250 % of control under setting [4].

As for `O=C1NCCN1c1ccccn1`, the T/C is 100 % of control (dose: 12.5 mg/kg/injection, schedule: Q04DX003 (ip), vehicle: saline); 90 % of control under setting [4]; 95 % of control under setting [5].

In the case of `CC1(C)N=C(N)N=C(N)N1c1ccc(OCCCOc2ccc(S(=O)(=O)F)cc2)c(Cl)c1`, the T/C runs as follows: (dose: 0.66 mg/kg/injection, schedule: Q01DX009 (ip), vehicle: saline) 108 % of control; (dose: 0.99 mg/kg/injection, schedule: Q01DX009 (ip), vehicle: saline) 104 % of control; under setting [3], 165 % of control; (dose: 25.0 mg/kg/injection, schedule: Q01DX009 (ip), vehicle: saline) 115 % of control; (dose: 33.0 mg/kg/injection, schedule: Q04DX003 (ip), vehicle: saline) 109 % of control and 120 % of control; under setting [5], 114 % of control and 120 % of control. In addition, the T/C (dose: 75.0 mg/kg/injection, schedule: Q04DX003 (ip), vehicle: saline) was 114 % of control.

`CC(=O)OC1CCC2C3CCC4=C(Cl)C(=O)CCC4C3CCC12C` (configuration not stated): the T/C (dose: 100.0 mg/kg/injection, schedule: Q04DX003 (sc), vehicle: steriod suspending solution) was 90 % of control; the T/C (dose: 200.0 mg/kg/injection, schedule: Q04DX003 (sc), vehicle: steriod suspending solution) is 100 % of control; the T/C (dose: 400.0 mg/kg/injection, schedule: Q04DX003 (sc), vehicle: steriod suspending solution) was 100 % of control.

On to `N#Cc1cnc(=S)n(-c2cc(C(F)(F)F)cc(C(F)(F)F)c2)c1N`, for which the T/C under setting [6] was 101 % of control and the T/C (dose: 100.0 mg/kg/injection, schedule: Q01DX009 (ip), vehicle: saline with Tween-80) was 115 % of control.

Take `CN(C)CCCc1c2ccccc2nc2ccc(Cl)cc12`: the T/C runs as follows: (dose: 1.56 mg/kg/injection, schedule: Q01DX009 (ip), vehicle: saline) 109 % of control; (dose: 3.12 mg/kg/injection, schedule: Q01DX009 (ip), vehicle: saline) 90 % of control; (dose: 6.0 mg/kg/injection, schedule: Q04DX003 (ip), vehicle: saline) 104 % of control; under setting [1], 100 % of control and 109 % of control; (dose: 11.0 mg/kg/injection, schedule: Q01DX009 (ip), vehicle: saline) 109 % of control; under setting [2], 109 % of control. Besides, the T/C reads like this: under setting [3], 100 % of control; (dose: 16.0 mg/kg/injection, schedule: Q01DX009 (ip), vehicle: saline) 100 % of control; under setting [4], 109 % of control; (dose: 37.0 mg/kg/injection, schedule: Q01DX009 (ip), vehicle: saline) 118 % of control; (dose: 50.0 mg/kg/injection, schedule: Q01DX009 (ip), vehicle: saline) 109 % of control.

Consider `OC(c1cc(C23CC4CC(CC(C4)C2)C3)nc2c(Cl)cc(Cl)cc12)C1CCCCN1` (configuration not stated), for which the T/C was 88 % of control under setting [7]; 90 % of control (dose: 25.0 mg/kg/injection, schedule: Q01DX009 (ip), vehicle: saline with Tween-80); 89 % of control and 97 % of control under setting [6].

`COP(=S)(NC(C)C)Oc1ccc(C)cc1[N+](=O)[O-]` (configuration not stated): the T/C reads like this: (dose: 1.56 mg/kg/injection, schedule: Q01DX009 (ip), vehicle: saline with Tween-80) 106 % of control; (dose: 3.13 mg/kg/injection, schedule: Q01DX009 (ip), vehicle: saline with Tween-80) 89 % of control; (dose: 6.25 mg/kg/injection, schedule: Q01DX009 (ip), vehicle: saline with Tween-80) 97 % of control; under setting [7], 100 % of control.

In the case of `CC(C)(CC(=O)O)c1ccccc1`, the T/C runs as follows: under setting [4], 89 % of control and 109 % of control; under setting [5], 104 % of control and 120 % of control; (dose: 100.0 mg/kg/injection, schedule: Q04DX003 (ip), vehicle: saline) 102 % of control and 106 % of control; (dose: 200.0 mg/kg/injection, schedule: Q04DX003 (ip), vehicle: saline) 102 % of control and 110 % of control and 113 % of control; (dose: 400.0 mg/kg/injection, schedule: Q04DX003 (ip), vehicle: saline) 105 % of control.
